{"source": "patent US11007171B2", "about": "“Treatment and prevention of joint disorders” (Summit Innovation Labs, LLC, priority 2017, dated 2021)", "origin": "cited, not measured here", "key": {"P38 MAPK": {"system": "P38 MAPK", "parameters": "key: ↓: Downregulate Inducers of arthritis"}, "NF-κB": {"system": "NF-κB", "parameters": "key: ↓: Downregulate Inducers of arthritis"}, "[1]": {"system": "23 fungi strains including Candida species", "conditions": "fairly low concentration"}, "VEGF": {"system": "VEGF", "parameters": "key: ↓: Downregulate Inducers of arthritis"}, "Runx2": {"system": "Runx2", "parameters": "key: ↓: Downregulate Inducers of arthritis"}, "[2]": {"system": "Human Chondrocytes Treated with Hydrogen Peroxide or Growth-Related Oncogene a"}, "[3]": {"system": "Collagen induced rheumatoid arthritis", "conditions": "quercetin supplementation"}, "[4]": {"conditions": "doses of a few grams a day in either humans or animals"}, "AP1": {"system": "AP1", "parameters": "key: ↓: Downregulate Inducers of arthritis"}, "Bax": {"system": "Bax", "parameters": "key: ↓: Downregulate Inducers of arthritis"}, "mTOR": {"target": "mTOR (Homo sapiens, UniProt P42345)", "parameters": "key: ↓: Downregulate Inducers of arthritis"}, "HIF-2α": {"system": "HIF-2α", "parameters": "key: ↓: Downregulate Inducers of arthritis"}, "FGF": {"system": "FGF", "parameters": "key: ↓: Downregulate Inducers of arthritis"}, "mice fed high fat diet": {"system": "mice fed high fat diet", "conditions": "oral"}, "[5]": {"system": "advanced glycation end products stimulated chondrocytes"}, "[6]": {"system": "Human Articular Cartilage and Chondrosarcoma Cells"}, "[7]": {"system": "osteoarthritis chondrocytes"}, "[8]": {"system": "OA cartilage of animal model and IL-1β treated human chondrocytes", "conditions": "resveratrol injection"}, "C57BL/6 mice": {"system": "C57BL/6 mice", "conditions": "local intra-articular injection"}, "RA": {"system": "RA", "conditions": "by suppressing IL-1β, TNF-α, NF-κB, COX2 and PGE2, MMPs, and arthritis index through induction of SIRT1"}, "[9]": {"system": "acute antigen-induced arthritis model"}, "[10]": {"system": "rheumatoid arthritis synovial fibroblast (RASF)"}, "[11]": {"system": "pigs with the equivalent of human metabolic syndrome"}, "male C57BL/6J mice": {"system": "male C57BL/6J mice", "conditions": "0.4% (w/w), 4-8 week-old male C57BL/6J mice"}, "[12]": {"system": "rats fed a high cholesterol diet"}, "[13]": {"system": "Porphyromonas gingivalis, Prevotella gingivalis, and Actinobacillus actinomycetemcomitans", "conditions": "periodontopathic microorganisms"}, "[14]": {"conditions": "compared with vitamin E"}, "[15]": {"system": "high fat diet-induced obese mice", "conditions": "compared with controls"}, "[16]": {"conditions": "in vivo"}, "cartilage": {"system": "cartilage", "conditions": "by inhibiting iNOS expression"}, "NMDAR": {"system": "NMDAR", "parameters": "key: ↓: Downregulate Inducers of arthritis"}, "[17]": {"system": "experimental osteoarthritis", "conditions": "intraarticular magnesium sulfate (MgSO4)"}, "[18]": {"system": "rabbit articular chondrocytes", "conditions": "rabbit articular chondrocytes in vitro"}, "[19]": {"system": "human bone marrow-derived mesenchymal stem cells (hBMSCs)", "conditions": "especially at a concentration of 5 μM"}, "[20]": {"conditions": "after 4 weeks, 500 mg/day"}}}
{"molecule": "COc1cc(/C=C/C(=O)CC(=O)/C=C/c2ccc(O)c(OC)c2)ccc1O", "note": "[Curcumin, (1E,6E)-1,7-Bis(4-hydroxy-3-methoxyphenyl)-1,6-heptadiene-3,5-dione]", "values": [{"measurement": "Downregulate P38 MAPK", "setting": "P38 MAPK", "value": "↓"}, {"measurement": "Downregulate NF-κB", "setting": "NF-κB", "value": "↓"}, {"measurement": "IL-1β induced chondrocytes apoptosis", "setting": "chondrocytes", "value": "Inhibited IL-1β induced chondrocytes apoptosis, by suppressing caspase-3"}, {"measurement": "antifungal activity", "setting": "[1]", "value": "potent antifungal activity"}, {"measurement": "adhesion of Candida species to human buccal epithelial cells", "setting": "Candida species", "value": "inhibitory effect"}]}
{"molecule": "OCCc1ccc(O)c(O)c1", "note": "[Hydroxytyrosol, 4-(2-Hydroxyethyl)-1,2-benzenediol]", "values": [{"measurement": "Downregulate VEGF", "setting": "VEGF", "value": "↓"}, {"measurement": "Downregulate Runx2", "setting": "Runx2", "value": "↓"}, {"measurement": "level of SIRT1 mRNA", "setting": "[2]; in the presence of GROα", "value": "HT treatment significantly increased the level of SIRT1 mRNA in the presence of"}, {"measurement": "chondrocytes apoptosis, DNA damage", "setting": "[2]; pretreatment of chondrocytes, oxidative stress or GROα", "value": "Pretreatment of chondrocytes with HT (a) prevented chondrocytes apoptosis, DNA"}]}
{"molecule": "O=c1c(O)c(-c2ccc(O)c(O)c2)oc2cc(O)cc(O)c12", "note": "[Quercetin, 3,5,7,3′,4′-pentahydroxyflavone]", "values": [{"measurement": "Downregulate NF-κB", "setting": "NF-κB", "value": "↓"}, {"measurement": "progression of RA (arthritis score and paw swelling), elastase activity, oxidative stress and NO expression", "setting": "[3]", "value": "Quercetin supplementation (a) reduced progression of RA as indicated by a reduction"}, {"measurement": "NF-κB activity, IL-1β, CRP, monocyte chemotactic protein-1", "setting": "rat adjuvant arthritis", "value": "Quercetin supplementation significantly reduced NF-κB activity, IL-1β, CRP,"}, {"measurement": "plasma antioxidant activity", "setting": "rat adjuvant arthritis", "value": "monocyte chemotactic protein-1, and increased plasma antioxidant activity [Gardi C,"}, {"measurement": "side effects", "setting": "[4]", "value": "no side effects"}, {"measurement": "expression of genes associated with mitochondrial biogenesis (PGC-1a and SIRT1), mitochondrial DNA content, and cytochrome-C concentration", "setting": "mice; 7 days, 12.5 or 25 mg/kg b.w., muscle and brain, mice", "value": "increases"}, {"measurement": "maximal endurance capacity (time to fatigue) and voluntary wheel-running activity", "setting": "mice; treadmill running test, compared with placebo-treated mice", "value": "significantly increased"}]}
{"molecule": "Oc1ccc(/C=C/c2cc(O)cc(O)c2)cc1", "note": "[Resveratrol, 3,5,4′-trihydroxy-trans-stilbene]", "values": [{"measurement": "Downregulate AP1", "setting": "AP1", "value": "↓"}, {"measurement": "Downregulate Bax", "setting": "Bax", "value": "↓"}, {"measurement": "Downregulate mTOR", "setting": "mTOR", "value": "↓"}, {"measurement": "Downregulate HIF-2α", "setting": "HIF-2α", "value": "↓"}, {"measurement": "Downregulate FGF", "setting": "FGF", "value": "↓"}, {"measurement": "Downregulate NF-κB", "setting": "NF-κB", "value": "↓"}, {"measurement": "OA severity", "setting": "mice fed high fat diet", "value": "Significantly reduced"}, {"measurement": "chondrocyte apoptosis", "setting": "mice fed high fat diet", "value": "inhibited"}, {"measurement": "collagen type II expression", "setting": "mice fed high fat diet", "value": "increased"}, {"measurement": "type II collagen and proteoglycan degradation", "setting": "mice fed high fat diet", "value": "prevented"}, {"measurement": "AGEs induced degradation of collagen type II", "setting": "[5]", "value": "production of NO and PGE2, prevented AGEs induced degradation of collagen type"}, {"measurement": "AGEs induced expression and activity of MMP-13", "setting": "[5]", "value": "II, and decreased AGEs induced expression and activity of MMP-13 by down"}, {"measurement": "FGF and IL-1β induced chondrocytes apoptosis, expression of cartilage degrading proteases (MMPs and aggrecanases) and decrease in proteoglycan biosynthesis", "setting": "[6]", "value": "Significantly reduced fibroblast growth factor (FGF) and IL-1β induced chondrocytes"}, {"measurement": "chondrocyte apoptosis", "setting": "[7]", "value": "Reduced chondrocyte apoptosis mediated by (a) an inhibition of proapoptotic protein"}, {"measurement": "expression of collagen type II", "setting": "[8]", "value": "maintained"}, {"measurement": "expression of iNOS and MMP-13", "setting": "[8]", "value": "reduced"}, {"measurement": "AC degradation", "setting": "C57BL/6 mice", "value": "delayed"}, {"measurement": "OA symptoms", "setting": "C57BL/6 mice", "value": "reduced"}, {"measurement": "matrix synthesis", "setting": "C57BL/6 mice", "value": "increased"}, {"measurement": "RA development and progression", "setting": "RA", "value": "Resveratrol inhibited RA development and progression by suppressing inflammation"}, {"measurement": "knee swelling, histological score of synovial tissue, proliferating cell nuclear antigen (anti-PCNA), and proteins expressed by circulating microphages (CD 68, CD3)", "setting": "[9]", "value": "Resveratrol significantly reduced knee swelling, histological score of synovial tissue,"}, {"measurement": "apoptosis of rheumatoid arthritis synovial fibroblast (RASF)", "setting": "[10]", "value": "Resveratrol induced apoptosis of rheumatoid arthritis synovial fibroblast (RASF)"}, {"measurement": "body mass indices, serum cholesterol and C-reactive protein", "setting": "[11]", "value": "lowered"}, {"measurement": "glucose tolerance and endothelial function", "setting": "[11]", "value": "improved"}, {"measurement": "aerobic capacity", "setting": "male C57BL/6J mice", "value": "significantly increased"}]}
{"molecule": "COc1ccc([C@@H]2CC(=O)c3c(O)cc(O[C@@H]4O[C@H](CO[C@@H]5O[C@@H](C)[C@H](O)[C@@H](O)[C@H]5O)[C@@H](O)[C@H](O)[C@H]4O)cc3O2)cc1O", "note": "[hesperidin, hesperitin-7-O-rutinoside]", "values": [{"measurement": "inhibition of liver cholesterol biosynthesis", "setting": "[12]", "value": 28.3, "unit": "%"}, {"measurement": "inhibition of the esterification of hepatic cholesterol", "setting": "[12]", "value": 23.7, "unit": "%"}]}
{"molecule": "C=CCc1ccc(O)c(-c2ccc(O)c(CC=C)c2)c1", "note": "[honokiol]", "values": [{"measurement": "antimicrobial activity", "setting": "[13]", "value": "significant antimicrobial activity"}, {"measurement": "antioxidant activity, potency relative to vitamin E", "setting": "[14]", "value": 1000, "unit": "times"}, {"measurement": "glucose tolerance", "setting": "[15]", "value": "improved"}, {"measurement": "plasma total cholesterol and glucose levels", "setting": "[15]", "value": "significantly reduced"}, {"measurement": "cytotoxic effect on human gingival cells", "setting": "human gingival cells", "value": "relatively low cytotoxic effect"}]}
{"molecule": "C=CCc1ccc(O)c(-c2cc(CC=C)ccc2O)c1", "note": "[magnolol, 4-Allyl-2-(5-allyl-2-hydroxy-phenyl)phenol]", "values": [{"measurement": "antimicrobial activity", "setting": "[13]", "value": "significant antimicrobial activity"}, {"measurement": "oral bioavailability", "setting": "[16]", "value": "4-5%"}, {"measurement": "antioxidant activity, potency relative to vitamin E", "setting": "[14]", "value": 1000, "unit": "times"}, {"measurement": "fasting blood glucose and plasma insulin levels", "setting": "type 2 diabetic rats", "value": "reduced"}, {"measurement": "glucose tolerance", "setting": "[15]", "value": "improved"}, {"measurement": "plasma total cholesterol and glucose levels", "setting": "[15]", "value": "significantly reduced"}, {"measurement": "cytotoxic effect on human gingival cells", "setting": "human gingival cells", "value": "relatively low cytotoxic effect"}]}
{"molecule": "Oc1cc(O)c2c(c1)O[C@H](c1ccc(O)c(O)c1)[C@@H](O)[C@@H]2c1c(O)cc(O)c2c1O[C@H](c1ccc(O)c(O)c1)[C@@H](O)C2", "note": "[procyanidin B3]", "values": [{"measurement": "OA progression", "setting": "OA animal model", "value": "Pcy and components of Pcy (procyanidin B2 and B3) slowed OA progression,"}, {"measurement": "cartilage degradation and heterotopic ossification", "setting": "cartilage", "value": "Pcy B3 prevents cartilage degradation and heterotopic ossification (bone formation in"}]}
{"molecule": "(−)-epicatechin-(4β→8)-(−)-epicatechin [procyanidin B2]", "values": [{"measurement": "OA progression", "setting": "OA animal model", "value": "Pcy and components of Pcy (procyanidin B2 and B3) slowed OA progression,"}]}
{"molecule": "Magnesium", "values": [{"measurement": "Downregulate NMDAR", "setting": "NMDAR", "value": "↓"}, {"measurement": "Downregulate NF-κB", "setting": "NF-κB", "value": "↓"}, {"measurement": "cartilage degradation and chondrocyte apoptosis", "setting": "[17]", "value": "Reduced cartilage degradation and chondrocyte apoptosis deposition by blocking"}]}
{"molecule": "epigallocatechin-3-gallate [EGCG]", "values": [{"measurement": "Downregulate P38 MAPK", "setting": "P38 MAPK", "value": "↓"}, {"measurement": "Downregulate AP1", "setting": "AP1", "value": "↓"}, {"measurement": "Downregulate NF-κB", "setting": "NF-κB", "value": "↓"}, {"measurement": "AGEs induced expression of TNF-α and MMP-13", "setting": "OA chondrocytes", "value": "Significantly decreased AGEs induced expression of TNF-α and MMP-13 in OA"}, {"measurement": "chondrocyte proliferation, production of collagen type II and aggrecan", "setting": "[18]", "value": "Enhanced chondrocyte proliferation, production of collagen type II and aggrecan."}, {"measurement": "IL-1β-induced IL-6 and IL-8 synthesis", "setting": "RASF", "value": "Inhibited IL-1β-induced IL-6 and IL-8 synthesis in RASF via suppressing"}, {"measurement": "osteogenic effect on hBMSCs", "setting": "[19]", "value": "strong stimulatory effect"}]}
{"molecule": "glucosyl-hesperidin [G-Hesperidin]", "values": [{"measurement": "triglyceride level", "setting": "[20]", "value": "marked decrease"}]}
